ChEMBL document CHEMBL1133295, “Towards enzyme activated antiprostatic agents” (Bioorg Med Chem Lett, 2000)
pIC50: −log10 of the molar value.

Tests used:
Format in all cases: functional, cell-based
Conditions in all cases: Homo sapiens
[1] = tested on: LNCaP; assay: The compound was evaluated for cytotoxicity by assessing 3H thymidine uptake in LNCaP cell line in presence of PSA (1 ug)
[2] = tested on: HEK293; assay: The compound was evaluated for cytotoxicity by assessing 3H thymidine uptake in HEK293 cell line in presence of PSA (1 ug)
[3] = tested on: MCF7; assay: The compound was evaluated for cytotoxicity by assessing 3H thymidine uptake in MCF-7 cell line
[4] = tested on: LNCaP; assay: The compound was evaluated for cytotoxicity by assessing 3H thymidine uptake in LNCaP cell line
[5] = tested on: HEK293; assay: The compound was evaluated for cytotoxicity by assessing 3H thymidine uptake in HEK293 cell line

Compound | pIC50 [1] | pIC50 [2] | pIC50 [3] | pIC50 [4] | pIC50 [5]
N[C@@H](Cc1ccc(O)cc1)C(=O)Nc1ccc(COC(=O)N(CCCl)CCCl)cc1 | 4.47 | 3.76 | < 3.05 | 4.48 | 3.75
CC(C)(C)OC(=O)N[C@@H](Cc1ccc(O)cc1)C(=O)Nc1ccc(COC(=O)N(CCO)CCO)cc1 |  |  | < 3.05 | < 3.30 | < 3.22
